Laboratory results reported in US9051596B2, “Method for screening inhibitory substances to inflammatory skin-aging” (AMOREPACIFIC CORPORATION, priority 2011, dated 2015).

Assays:
Format in all cases: cell-based, human
[1] = system: NHF cells; assay: Viability of NHF cells treated with glycitein and stimulants (cell counting kit); conditions: 0.1-10 μM glycitein together with 1 μg/mL LPS and 500 UNITs IFN-γ, 24 hours, FIG. 11
Experimental: NHF cells (acquired from Lonza) were seeded onto a 96-well plate, with 1×10^4 cells per well, and cultured in a DMEM medium (acquired from Lonza) containing 10% (v/v) FBS, 100 U/mL penicillin and 100 μg/mL streptomycin under the condition of 37° C. and 5% CO2 for 24 hours. […] After treating with a cell counting kit reagent, with 1/10 the volume of each well, and culturing for 2 hours, then O.D. value was measured using SpectraMax.

[2] = system: TNF-α; assay: Production of TNF-α in THP-1 cells treated with glycitein and stimulants (TNF-α ELISA kit); conditions: THP-1 cells, 0, 0.1, 1 and 10 μM glycitein, then 1 μg/mL LPS and 500 UNITs IFN-γ, FIG. 9
Experimental: THP-1 cells (acquired from Korean Cell Line Bank) were seeded onto a 6-well plate, with 5×10^5 cells per well, and treated with 0, 0.1, 1 and 10 μM glycitein. […] After culturing for 24 hours, the culture medium was centrifuged at 1000 rpm for 3 minutes and the supernatant was taken. The concentration of TNF-α in the culture medium was determined using a TNF-α ELISA kit.

[3] = system: MMP-1; assay: Production of MMP-1 in NHF cells treated with glycitein and stimulated THP-1 cell culture medium (MMP-1 assay kit); conditions: NHF cells pretreated with 10 μM glycitein, then stimulated THP-1 culture medium, FIG. 12
Experimental: THP-1 cells (acquired from Korean Cell Line Bank) were seeded onto a 6-well plate, with 5×10^5 cells per well, and cultured in an RPMI-1640 medium (acquired from Lonza) containing 10% (v/v) FBS, 100 U/mL penicillin and 100 μg/mL streptomycin under the condition of 37° C. and 5% CO2 for 24 hours. Also, NHF cells (acquired from Lonza) were seeded onto a 24-well plate, with 3×10^4 cells per well, and cultured in a DMEM medium (acquired from Lonza) containing 10% (v/v) FBS, 100 U/mL penicillin and 100 μg/mL streptomycin under the condition of 37° C. and 5% CO2 for 24 hours. […] The THP-1 cell culture medium was centrifuged at 1000 rpm for 3 minutes and the supernatant was taken. The NHF cells were treated with the supernatant. NHF cells treated with serum-free DMEM (acquired from Lonza) were used as an untreated group. After culturing for 24 hours, the concentration of MMP-1 in the NHF cells was measured using an MMP-1 assay kit and the ratio of the concentration of MMP-1 relative to the untreated group was calculated.

[4] = system: inflammatory cytokines; assay: Production of inflammatory cytokines in THP-1 cells treated with glycitein and stimulants (cytokine array kit); conditions: 10 μM glycitein, then 1 μg/mL LPS and 500 UNITs IFN-γ, FIG. 10
Experimental: THP-1 cells (acquired from Korean Cell Line Bank) were seeded onto a 6-well plate, with 5×10^5 cells per well, and treated with 10 μM glycitein. […] The cells untreated or treated only with the stimulant were used as a control group. The culture medium was centrifuged at 1000 rpm for 3 minutes and the supernatant was taken. The inflammatory cytokines included in the cell culture medium were identified using a cytokine array kit (R&D Systems).

[5] = system: THP-1 cells; assay: Viability of THP-1 cells treated with glycitein, optionally with LPS and IFN-γ (cell counting kit); conditions: 24 hours
Experimental: (§1) THP-1 cells (acquired from Korean Cell Line Bank) were seeded onto a 96-well plate, with 3×10^4 cells per well, and cultured in an RPMI-1640 medium (acquired from Lonza) containing 10% (v/v) FBS, 100 U/mL penicillin and 100 μg/mL streptomycin under the condition of 37° C. and 5% CO2 for 24 hours. […] After treating with a cell counting kit reagent, with 1/10 the volume of each well, and culturing for 2 hours, O.D. value was measured using SpectraMax.

[6] = system: TNF-α; assay: Production of TNF-α in THP-1 cells treated with LPS and/or IFN-γ (TNF-α ELISA kit); conditions: IFN-γ alone, all concentrations (250, 500, 1000 UNITs), FIG. 1
Experimental: THP-1 cells (acquired from Korean Cell Line Bank) were seeded onto a 6-well plate, with 5×10^5 cells per well, and cultured in an RPMI-1640 medium (acquired from Lonza) containing 10% (v/v) FBS, 100 U/mL penicillin and 100 μg/mL streptomycin under the condition of 37° C. and 5% CO2 for 24 hours. Subsequently, the cells were cultured for 24 hours after treating with three kinds of LPS derived from Escherichia coli (E. coli O111:B4, E. coli O55:B5 and E. coli EH100) and two kinds of LPS derived from Salmonella [Salmonella typhosa (S. typhosa) and Salmonella typhimurium (S. typhimurium), acquired from Sigma Aldrich], at concentrations of 0, 0.1 and 1 μg/mL, and with 0, 250, 500 and 1000 UNITs of INF-γ (acquired from Sigma Aldrich). Subsequently, the culture medium was centrifuged at 1000 rpm for 3 minutes and the supernatant was taken and then the concentration of TNF-α in the supernatant was determined using a TNF-α ELISA kit.

[7] = system: THP-1 cells; assay: Viability of THP-1 cells treated with LPS and IFN-γ (cell counting kit)
Experimental: as §1, with “hours, cell viability was determined by measuring” for “hours,”, “value” for “value was measured”

Row | Molecule | cytotoxicity [1] | concentration of TNF-α [2] | production of MMP-1 [3] | amount of the inflammatory cytokines produced upon treatment with the stimulant [4] | cytotoxicity ([5]; glycitein alone, 10 μM or lower, FIG. 7) | cytotoxicity ([5]; glycitein together with 1 μg/mL LPS and 500 UNITs IFN-γ, FIG. 8) | effect on the production of TNF-α [6] | cytotoxicity [7]
1 | COc1cc2c(=O)c(-c3ccc(O)cc3)coc2cc1O [glycitein] | no cytotoxicity | lower as the concentration of glycitein increased | decreased production of MMP-1 | decreased | no cytotoxicity | no cytotoxicity | – | –
2 | IFN-γ: interferon-γ acquired from Sigma Aldrich, enhances inflammatory stimulation by LPS (protein, UniProt P01579 24-161, looked up) Interferon gamma: QDPYVKEAENLKKYFNAGHSDVADNGTLFLGILKNWKEESDRKIMQSQIVSFYFKLFKNFKDDQSIQKSVETIKEDMNVKFFNSNKKKRDDFEKLTNYSVTDLNVQRKAIHELIQVMAELSPAAKTGKRKRSQMLFRG | – | – | – | – | – | – | no effect | no cytotoxicity
